{"source": "the supplement of paper PMC10307832", "assay_in_all_cases": "relative viability (nuclei count vs DMSO), 5 days (fraction); higher = more cells survive", "key": {"[1]": {"system": "201T", "summary_of_the_method": "(§1)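 Lung cancer cell lines were seeded in 1536-well plates and dosed by pin tool the next day, with either a single drug or a fixed anchor-drug dose combined with five library-drug doses (not always all listed) spaced in √10 steps. Five days later, one step fixed the cells and stained their nuclei (final 0.05% Triton X-100, 1% formaldehyde, 1 ug/ml Hoechst), and nuclei were counted on 4× images. Relative viability is the nuclei count in treated wells divided by the count in vehicle wells, and each value is the median of duplicate plates.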"}, "[2]": {"system": "A-427", "summary_of_the_method": "as §1"}, "[3]": {"system": "BEN", "summary_of_the_method": "as §1"}, "[4]": {"system": "COR-L23", "summary_of_the_method": "as §1"}, "[5]": {"system": "EKVX", "summary_of_the_method": "as §1"}, "[6]": {"system": "EMC-BAC-2", "summary_of_the_method": "as §1"}, "[7]": {"system": "EPLC-272H", "summary_of_the_method": "as §1"}, "[8]": {"system": "HCC-44", "summary_of_the_method": "as §1"}, "[9]": {"system": "HCC-827", "summary_of_the_method": "as §1"}, "[10]": {"system": "LCLC-103H", "summary_of_the_method": "as §1"}, "[11]": {"system": "LK-2", "summary_of_the_method": "as §1"}, "[12]": {"system": "LXF-289", "summary_of_the_method": "as §1"}, "[13]": {"system": "NCI-H1650", "summary_of_the_method": "as §1"}, "[14]": {"system": "NCI-H1651", "summary_of_the_method": "as §1"}, "[15]": {"system": "NCI-H1793", "summary_of_the_method": "as §1"}, "[16]": {"system": "NCI-H1915", "summary_of_the_method": "as §1"}, "[17]": {"system": "NCI-H2087", "summary_of_the_method": "as §1"}, "[18]": {"system": "NCI-H2126", "summary_of_the_method": "as §1"}, "[19]": {"system": "NCI-H2347", "summary_of_the_method": "as §1"}, "[20]": {"system": "NCI-H358", "summary_of_the_method": "as §1"}, "[21]": {"system": "NCI-H460", "summary_of_the_method": "as §1"}, "[22]": {"system": "NCI-H596", "summary_of_the_method": "as §1"}, "[23]": {"system": "SW 1573", "summary_of_the_method": "as §1"}}, "data": [{"molecule": "Cc1cnc(-c2cnc(NCCNc3ccc(C#N)cn3)nc2-c2ccc(Cl)cc2Cl)[nH]1", "note": "+ CS(=O)(=O)N1CCN(Cc2cc3nc(-c4cccc5[nH]ncc45)nc(N4CCOCC4)c3s2)CC1 [Pictilisib] (partner 1 µM)", "values": [{"measurement": "relative viability", "setting": "[1]; first compound 0.08 µM", "value": 0.713}, {"measurement": "relative viability", "setting": "[1]; first compound 0.253 µM", "value": 0.629}, {"measurement": "relative viability", "setting": "[1]; first compound 0.8 µM", "value": 0.724}, {"measurement": "relative viability", "setting": "[1]; first compound 2.53 µM", "value": 0.723}, {"measurement": "relative viability", "setting": "[2]; first compound 0.08 µM", "value": 0.758}, {"measurement": "relative viability", "setting": "[2]; first compound 0.253 µM", "value": 0.705}, {"measurement": "relative viability", "setting": "[2]; first compound 0.8 µM", "value": 0.696}, {"measurement": "relative viability", "setting": "[2]; first compound 2.53 µM", "value": 0.619}, {"measurement": "relative viability", "setting": "[3]; first compound 0.08 µM", "value": 0.572}, {"measurement": "relative viability", "setting": "[3]; first compound 0.253 µM", "value": 0.596}, {"measurement": "relative viability", "setting": "[3]; first compound 0.8 µM", "value": 0.612}, {"measurement": "relative viability", "setting": "[3]; first compound 2.53 µM", "value": 0.648}, {"measurement": "relative viability", "setting": "[4]; first compound 0.08 µM", "value": 0.901}, {"measurement": "relative viability", "setting": "[4]; first compound 0.253 µM", "value": 0.683}, {"measurement": "relative viability", "setting": "[4]; first compound 0.8 µM", "value": 0.944}, {"measurement": "relative viability", "setting": "[4]; first compound 2.53 µM", "value": 0.755}, {"measurement": "relative viability", "setting": "[5]; first compound 0.08 µM", "value": 0.462}, {"measurement": "relative viability", "setting": "[5]; first compound 0.253 µM", "value": 0.394}, {"measurement": "relative viability", "setting": "[5]; first compound 0.8 µM", "value": 0.374}, {"measurement": "relative viability", "setting": "[5]; first compound 2.53 µM", "value": 0.392}, {"measurement": "relative viability", "setting": "[6]; first compound 0.08 µM", "value": 0.579}, {"measurement": "relative viability", "setting": "[6]; first compound 0.253 µM", "value": 0.525}, {"measurement": "relative viability", "setting": "[6]; first compound 0.8 µM", "value": 0.515}, {"measurement": "relative viability", "setting": "[6]; first compound 2.53 µM", "value": 0.567}, {"measurement": "relative viability", "setting": "[7]; first compound 0.08 µM", "value": 0.337}, {"measurement": "relative viability", "setting": "[7]; first compound 0.253 µM", "value": 0.325}, {"measurement": "relative viability", "setting": "[7]; first compound 0.8 µM", "value": 0.316}, {"measurement": "relative viability", "setting": "[7]; first compound 2.53 µM", "value": 0.358}, {"measurement": "relative viability", "setting": "[8]; first compound 0.08 µM", "value": 0.706}, {"measurement": "relative viability", "setting": "[8]; first compound 0.253 µM", "value": 0.578}, {"measurement": "relative viability", "setting": "[8]; first compound 0.8 µM", "value": 0.715}, {"measurement": "relative viability", "setting": "[8]; first compound 2.53 µM", "value": 0.938}, {"measurement": "relative viability", "setting": "[9]; first compound 0.08 µM", "value": 1.02}, {"measurement": "relative viability", "setting": "[9]; first compound 0.8 µM", "value": 0.951}, {"measurement": "relative viability", "setting": "[9]; first compound 2.53 µM", "value": 0.813}, {"measurement": "relative viability", "setting": "[10]; first compound 0.08 µM", "value": 0.675}, {"measurement": "relative viability", "setting": "[10]; first compound 0.253 µM", "value": 0.542}, {"measurement": "relative viability", "setting": "[10]; first compound 0.8 µM", "value": 0.696}, {"measurement": "relative viability", "setting": "[10]; first compound 2.53 µM", "value": 0.619}, {"measurement": "relative viability", "setting": "[11]; first compound 0.08 µM", "value": 0.646}, {"measurement": "relative viability", "setting": "[11]; first compound 0.253 µM", "value": 0.577}, {"measurement": "relative viability", "setting": "[11]; first compound 0.8 µM", "value": 0.618}, {"measurement": "relative viability", "setting": "[11]; first compound 2.53 µM", "value": 1.11}, {"measurement": "relative viability", "setting": "[12]; first compound 0.08 µM", "value": 0.841}, {"measurement": "relative viability", "setting": "[12]; first compound 0.253 µM", "value": 0.745}, {"measurement": "relative viability", "setting": "[12]; first compound 0.8 µM", "value": 0.845}, {"measurement": "relative viability", "setting": "[12]; first compound 2.53 µM", "value": 0.877}, {"measurement": "relative viability", "setting": "[13]; first compound 0.08 µM", "value": 0.682}, {"measurement": "relative viability", "setting": "[13]; first compound 0.253 µM", "value": 0.595}, {"measurement": "relative viability", "setting": "[13]; first compound 0.8 µM", "value": 0.518}, {"measurement": "relative viability", "setting": "[13]; first compound 2.53 µM", "value": 0.597}, {"measurement": "relative viability", "setting": "[14]; first compound 0.08 µM", "value": 0.67}, {"measurement": "relative viability", "setting": "[14]; first compound 0.253 µM", "value": 0.485}, {"measurement": "relative viability", "setting": "[14]; first compound 0.8 µM", "value": 0.524}, {"measurement": "relative viability", "setting": "[14]; first compound 2.53 µM", "value": 0.686}, {"measurement": "relative viability", "setting": "[15]; first compound 0.08 µM", "value": 0.315}, {"measurement": "relative viability", "setting": "[15]; first compound 0.253 µM", "value": 0.351}, {"measurement": "relative viability", "setting": "[15]; first compound 0.8 µM", "value": 0.412}, {"measurement": "relative viability", "setting": "[15]; first compound 2.53 µM", "value": 0.596}, {"measurement": "relative viability", "setting": "[16]; first compound 0.08 µM", "value": 0.958}, {"measurement": "relative viability", "setting": "[16]; first compound 0.8 µM", "value": 0.939}, {"measurement": "relative viability", "setting": "[16]; first compound 2.53 µM", "value": 1.01}, {"measurement": "relative viability", "setting": "[17]; first compound 0.08 µM", "value": 0.853}, {"measurement": "relative viability", "setting": "[17]; first compound 0.253 µM", "value": 0.754}, {"measurement": "relative viability", "setting": "[17]; first compound 0.8 µM", "value": 0.975}, {"measurement": "relative viability", "setting": "[17]; first compound 2.53 µM", "value": 1.06}, {"measurement": "relative viability", "setting": "[18]; first compound 0.08 µM", "value": 0.512}, {"measurement": "relative viability", "setting": "[18]; first compound 0.253 µM", "value": 0.468}, {"measurement": "relative viability", "setting": "[18]; first compound 0.8 µM", "value": 0.494}, {"measurement": "relative viability", "setting": "[18]; first compound 2.53 µM", "value": 0.559}, {"measurement": "relative viability", "setting": "[19]; first compound 0.08 µM", "value": 0.931}, {"measurement": "relative viability", "setting": "[19]; first compound 0.253 µM", "value": 0.416}, {"measurement": "relative viability", "setting": "[19]; first compound 0.8 µM", "value": 0.698}, {"measurement": "relative viability", "setting": "[19]; first compound 2.53 µM", "value": 0.6}, {"measurement": "relative viability", "setting": "[20]; first compound 0.08 µM", "value": 0.301}, {"measurement": "relative viability", "setting": "[20]; first compound 0.8 µM", "value": 0.389}, {"measurement": "relative viability", "setting": "[20]; first compound 2.53 µM", "value": 0.264}, {"measurement": "relative viability", "setting": "[21]; first compound 0.08 µM", "value": 0.243}, {"measurement": "relative viability", "setting": "[21]; first compound 0.253 µM", "value": 0.378}, {"measurement": "relative viability", "setting": "[21]; first compound 0.8 µM", "value": 0.318}, {"measurement": "relative viability", "setting": "[21]; first compound 2.53 µM", "value": 0.504}, {"measurement": "relative viability", "setting": "[22]; first compound 0.08 µM", "value": 0.424}, {"measurement": "relative viability", "setting": "[22]; first compound 0.253 µM", "value": 0.397}, {"measurement": "relative viability", "setting": "[22]; first compound 0.8 µM", "value": 0.391}, {"measurement": "relative viability", "setting": "[22]; first compound 2.53 µM", "value": 0.435}, {"measurement": "relative viability", "setting": "[23]; first compound 0.08 µM", "value": 0.487}, {"measurement": "relative viability", "setting": "[23]; first compound 0.253 µM", "value": 0.492}, {"measurement": "relative viability", "setting": "[23]; first compound 0.8 µM", "value": 0.552}, {"measurement": "relative viability", "setting": "[23]; first compound 2.53 µM", "value": 0.327}]}]}
